{"source": "patent US8394793B2", "about": "“Therapeutic agent for inflammatory bowel disease” (Nippon Shinyaku Co., Ltd., priority 2008, dated 2013)", "tested_on": "colitis resulted by administration of an aqueous solution of dextran sulfate in rats", "experiment": "Dextran sulfate-induced colitis in rats (Test Example 1)", "format": "in vivo, rat", "details": "F 334 rats, 3% dextran sulfate in drinking water for 5 days, 5 mg/kg orally twice daily", "procedure": "Rats (males; eight weeks age) of an F 334 strain (Japan SLC) were allowed free access to a 3% aqueous solution of dextran sulfate for five days and, after that, they were allowed free access to tap water for one day. The test substance was orally administered twice daily at the start of drinking of a 3% aqueous solution of dextran sulfate. After six days from the initiation of the administration, the large intestine was excised and its length was measured. With regard to the symptom score, (1) stool consistency, (2) fecal blood and (3) degree of body weight reduction from the previous day were evaluated in five stages as shown in the following Table 1 and a mean value thereof was calculated. As to the test substance, the compound A (5 mg/kg) was used. The test substance was administered by suspending in a 0.5% aqueous solution of methyl cellulose. A 0.5% aqueous solution of methyl cellulose was administered to the control group. Ten rats per group were used. [table] With regard to shortening of the large intestine, significant difference from the control group was tested by a t-test (*: p<0.05). With regard to the symptom score of colitis, significant difference from the control group was tested by a t-test (##: p<0.01)."}
{"smiles": "CC(C)N(CCCCOCC(=O)NS(C)(=O)=O)c1cnc(-c2ccccc2)c(-c2ccccc2)n1", "note": "[compound A, 2-{4-[N-(5,6-diphenylpyrazin-2-yl)-N-isopropylamino]butyl-oxy}-N-(methylsulfonyl)acetamide]", "values": [{"measurement": "shortening of large intestine (length of the large intestine)", "setting": "large intestine excised after six days, t-test vs control p<0.05, FIG. 1", "result": "significantly suppressed"}, {"measurement": "symptom score of colitis (stool consistency, fecal blood, body weight reduction)", "setting": "t-test vs control p<0.01, FIG. 2", "result": "significantly suppressed"}]}
